Laboratory results as given in patent US20250059395A1, “SURFACTANTS FOR INKS, PAINTS, AND ADHESIVES” (AdvanSix Resins & Chemicals LLC, priority 2023, published 2025).

Experiment: Critical micelle concentration and surface tension by Wilhelmy plate method
Type: physicochemical
Conditions: comparison of Surfactant 9 and Comparative Surfactant
Description: As surfactant concentration increases, surface tension decreases. Once the surface is completely overlaid with surfactant molecules, micelles begin to form. This point represents the CMC, as well as the minimum surface tension. Further addition of surfactant will not further affect the surface tension. CMC may therefore be measured by observing the change in surface tension as a function of surfactant concentration. One such method for measuring this value is the Wilhemy plate method. A Wilhelmy plate is usually a thin iridium-platinum plate attached to a balance by a wire and placed perpendicularly to the air-liquid interface. The balance is used to measure the force exerted on the plate by wetting. This value is then used to calculate the surface tension (Y) according to Equation 1: […]
Nuclear magnetic resonance (NMR) spectroscopy was performed on a Bruker 500 MHz spectrometer. The critical micelle concentration (CMC) was determined by the Wilhelmy plate method at 23° C. with a tensiometer (DCAT 11, DataPhysics Instruments GmbH) equipped with a Pt—Ir plate. Dynamic surface tension was determined with a bubble pressure tensiometer (Krüss BP100, Krüss GmbH), at 23° C. Contact angle was determined with the optical contact angle goniometer (OCA 15 Pro, DataPhysics GmbH) equipped with a digital camera.

Row | Compound | surfactant properties (activity in words)
1 | C[N+](C)(CCCCCC(=O)NCCC[Si](O[Si](C)(C)C)(O[Si](C)(C)C)O[Si](C)(C)C)CC(=O)O [Comparative Surfactant, N-(carboxymethyl)-6-((3-(1,1,1,5,5,5-hexamethyl-3-((trimethylsilyl)oxy)trisiloxan-3-yl)propyl)amino)-N,N-dimethyl-6-oxohexan-1-aminium bromide] | inferior surfactant properties
2 | C[N+](C)(CCCCCC(=O)O)CCCCCC(=O)NCCC[Si](O[Si](C)(C)C)(O[Si](C)(C)C)O[Si](C)(C)C [Surfactant 9, N-(5-carboxypentyl)-6-((3-(1,1,1,5,5,5-hexamethyl-3-((trimethylsilyl)oxy)trisiloxan-3-yl)propyl)amino)-N,N-dimethyl-6-oxohexan-1-aminium bromide] | excellent activity
